Experimental data as given in US10975069B2, “Sigma-2 receptor ligand drug conjugates as antitumor compounds, methods of synthesis and uses thereof” (priority 2014, dated 2021).
Values joined by “and” are separate entries in the source; they are usually repeats but may differ in a detail not shown here. Equal values may be shown once.

Tests used:
[1] = target: T1, sigma-2 receptors (Homo sapiens, UniProt Q5BJF2); assay: Competitive inhibition of internalization of fluorescent sigma-2 ligand SW 120 (flow cytometry); format: cell-based; conditions: increasing concentrations of SW V-49s (0, 10, 30, 50), 30 min 37 °C, then SW120; FIG. 3
T1 construct: endogenous in cells
Experimental: In these experiments, competitive binding assays of SW V-49s with the fluorescently labeled sigma-2 ligand SW 120 of structure
AsPC-1 cells (5×10^5/well) were seeded into a 6 well plate for 24 hours before treatment. The cells were then incubated with […] of SW V-49s for 30 minutes at 37° C. Subsequently, 10 nM of fluorescently labeled sigma-2 ligand SW120 was added to the cell culture medium containing SW V-49s. After 30 minute of incubation at 37° C., cells were washed twice with phosphate buffered saline (PBS) and harvested with 0.05% trypsin EDTA (Life Technologies. Grand Island, N.Y.). Thereafter, the cells were centrifuged at 1000×g for 5 minutes and the pellets were washed twice with PBS. Internalization of SW 120 was determined by flow cytometer (FACSCalibur™, BD Biosciences, San Jose, Calif.).

[2] = system: KCKO mouse pancreatic tumors; assay: Syngeneic subcutaneous KCKO pancreatic tumor model; format: in vivo, C57BL/6 mice
Description: FIG. 7 illustrates changes in mean tumor volume (in mm^3) following administration to interval of C57BL/6 mice with established, syngeneic, subcutaneous KCKO mouse pancreatic tumors over a period of 10 days for SW V-49s. Erastin, SV119, a mixture of Erastin and SV119, and a vehicle control. […] Note in FIG. 7 the decrease in tumor volume from approx. 40 mm^3 to approx. 20 mm^3 in SW V 49s-treated mice, compared to an increase from approx. 40 mm^3 to approx. 140 mm^3 for other treatments.
In these experiments, in a survival study of the mice reported in Example 9, the group which received SW V-49s survived at 100% (FIG. 8). In all other groups, the mean survival clustered at around 18 days.
(§1) Animal studies were performed according to the animal studies protocol approved by Washington University Institutional Animal Care Facility. In vivo studies with mice were performed to compare the effects of SW V-49s, SV119. Erastin, a combination of SV119 with Erastin, and vehicle. The vehicle used in the in vivo studies is a mixture of 25% cremophor and 75% H2O. C57BL/6 mice (6 weeks old. National Cancer Institute Laboratories) were injected in the right flank with 200 μL single cell suspension of KCKO cells in RPMI medium (25×10^4/10^5 cells per mouse). Mice were randomized into four groups (n=15). Treatment was started when the mean tumor diameter was ^˜5 mm. Mice received daily intra peritoneal injections with 375 nmoles in 100 μL/dose of SW V-49s and vehicle for 10 days SV119. Erastin, equimolar mix of SV119 and Erastin. Tumors were measured every other day with a digital caliper. Several mice from different treatment groups were sent to the Division of Comparative Medicine in our institution for pathologic evaluation. Blood was collected for complete blood count (CBC) and biochemical analysis (AST, ALT, BUN, total bilirubin, and Cr). Organs were examined grossly and histologically.

[3] = Toxicity study (necropsy, CBC, clinical chemistry) in tumor bearing mice; format: in vivo, C57BL/6 mice
Experimental: Six adult female mice were submitted to necropsy. The strain designation of the mice was C57BL/6. […]
as §1, with “The vehicle used in the in vivo studies is a mixture of 25% cremophor and 75% H2O.” left out, “Mice received daily intra peritoneal injections with 375 nmoles in 100 μL/dose of SW V-49s and vehicle for 10 days SV119.” left out

[4] = system: AsPC-1 cells; assay: CELLTITER-GLO viability after pre-treatment with NAC or ZVAD; format: cell-based; conditions: Homo sapiens
Experimental: To assess the roles of these two mechanisms on the induction of cell death, the effects of pan-caspase inhibitor and antioxidant on the efficacy of SW V-49s were tested. In these experiments, AsPC-1 cells were pre-treated with 10 mM of the antioxidant N acetyl cysteine (NAC), 20 μM of pan-caspase inhibitor ZVAD, and DMSO as a control for 1 hour. Then, the 3 groups were treated with 10 μM of SW V-49s for 5 hours, after which a CELLTITER-GLO® viability assay was performed.

[5] = Table 2, individual mouse, listed as test drug
[6] = Table 3 differential, individual mouse
[7] = Table 3 differential, individual mouse, listed as test drug
[8] = Table 4, individual mouse, listed as test drug
[9] = Table 6, individual mouse (Drug 1-3), treated 10 days
[10] = Table 7, individual mouse (Drug 1-3), treated 10 days
[11] = daily i.p. 375 nmoles for 10 days

T1 sequence (Q5BJF2 whole entry): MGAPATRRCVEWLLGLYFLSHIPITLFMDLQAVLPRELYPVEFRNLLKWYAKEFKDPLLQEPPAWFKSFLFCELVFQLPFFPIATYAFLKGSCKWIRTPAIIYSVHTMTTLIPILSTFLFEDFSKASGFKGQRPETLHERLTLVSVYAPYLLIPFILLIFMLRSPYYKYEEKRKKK

CCOc1ccccc1-n1c(CN2CCN(C(=O)COc3ccc(CNCCCCCCN4C5CCCC4CC(OC(=O)Nc4cc(C)ccc4OC)C5)cc3)CC2)nc2ccccc2c1=O.O=C(O)C(=O)O (centres unmarked) [SW V-49s]
blocking of SW 120 internalization [1]: efficient blocking of SW 120 internalization | change in tumor volume ([2]; 10 days, p<0.05, FIG. 7): significant decrease in tumor volume | effect on mean tumor volume / tumor growth ([2]; daily i.p. 375 nmoles for 10 days, FIG. 14A): capable of reducing the mean tumor volume | median survival ([2]; daily i.p. 375 nmoles for 10 days, Kaplan-Meier, FIG. 14B): 48 days | mean tumor volume at end of treatment ([2]; over a period of 10 days, from approx. 40 mm^3 at start, FIG. 7): approx. 20 mm^3 | survival ([2]; survival study, FIG. 8): 100% | WBC ([3]; Table 2, individual mouse, daily i.p. over 2 weeks, listed as test drug): 5.68 10^3/μL and 3.34 10^3/μL and 4.16 10^3/μL | Platelets ([3]; Table 2, individual mouse, * mild platelet clumping, listed as test drug): 749* 10^3/μL and 885 10^3/μL and 611 10^3/μL | HGB [3, 5]: 10.7 g/dL and 10.5 g/dL and 9.8 g/dL | MCH [3, 5]: 12.3 pg and 12.5 pg and 12.8 pg | MCHC [3, 5]: 27.2% and 24.8% and 26.0% | MCV [3, 5]: 45.3 u and 50.5 u and 49.2 u | PCV [3, 5]: 39.3% and 42.4% and 37.7% | RBC [3, 5]: 8.67 10^6/μL and 8.40 10^6/μL and 7.66 10^6/μL | Bands [3, 6]: 0% | Basophils [3, 6]: 0% | Eosinophils [3, 6]: 0% | Nrbe [3, 6]: 0% | Lymphocytes [3, 7]: 96% and 78% and 87% | Monocytes [3, 7]: 2% and 4% and 0% | Neutrophils [3, 7]: 2% and 18% and 13% | ALT [3, 8]: 138 u/L and 64 u/L and 63 u/L | AST [3, 8]: 167 u/L and 147 u/L and 55 u/L | BUN [3, 8]: 19 mg/dL and 22 mg/dL and 17 mg/dL | Creatinine [3, 8]: 0.22 mg/dL and 0.21 mg/dL and 0.24 mg/dL | Glucose [3, 8]: 178 mg/dL and 310 mg/dL and 180 mg/dL | Total Protein [3, 8]: 5.1 g/dL (2×) and 5.7 g/dL | HGB [3, 9]: 9.8 g/dL and 10.7 g/dL and 10.5 g/dL | MCH [3, 9]: 12.8 pg and 12.3 pg and 12.5 pg | MCHC [3, 9]: 26.0% and 27.2% and 24.8% | MCV [3, 9]: 49.2 u and 45.3 u and 50.5 u | PCV [3, 9]: 37.7% and 39.3% and 42.4% | Platelets [3, 9]: 611 10^3/μL and 749 10^3/μL and 885 10^3/μL | RBC [3, 9]: 7.66 10^6/μL and 8.67 10^6/μL and 8.40 10^6/μL | WBC [3, 9]: 4.16 10^3/μL and 5.68 10^3/μL and 3.34 10^3/μL | ALT [3, 10]: 138 μ/L and 64 μ/L and 63 μ/L | AST [3, 10]: 167 μ/L and 147 μ/L and 55 μ/L | BUN [3, 10]: 19 mg/dL and 22 mg/dL and 17 mg/dL | Creatinine [3, 10]: 0.22 mg/dL and 0.21 mg/dL and 0.24 mg/dL | Glucose [3, 10]: 178 mg/dL and 310 mg/dL and 180 mg/dL | Total Protein [3, 10]: 5.1 g/dL (2×) and 5.7 g/dL | mice behavior and drug-related deaths [3, 11]: no gross abnormalities in the mice behavior (grooming) or any drug-related deaths were recorded | organs analyses (brain, heart, lungs, alimentary tract, kidneys, liver and pancreas), adverse drug effects [3, 11]: did not reveal any obvious signs of adverse drug effects, except a mild peritonitis | serum labs (CBC, AST, ALT, BUN, total bilirubin, and Cr) [3, 11]: unchanged | histopathologic finding in drug-treated versus control animals ([3]; daily i.p. over 2 weeks): minimal to moderate chronic peritonitis | Body weight ([3]; pre-necropsy, individual mouse, daily i.p. over 2 weeks, listed as test drug): 21 grams and 19 grams and 22 grams | differences in cell counts (CBC) versus vehicle ([3]; treated for 10 days, Table 6): not statistically significant | viability at 10 µM ([4]; ASPC1, 10 μM SW V-49s 5 hours after 1 hour pre-treatment with 20 μM ZVAD): 91% | viability at 10 µM ([4]; ASPC1, 10 μM SW V-49s 5 hours after 1 hour pre-treatment with 10 mM NAC): 63% | viability at 10 µM ([4]; ASPC1, 10 μM SW V-49s alone, 5 hours (DMSO pre-treatment)): 39%
